Legend:
weedy turf = test: Weedy turf test plots: Vegetation Ranking Index; type: in vivo; settings: healthy perennial grass cover x 3.5 minus 2.5 x stressed/unhealthy grass minus weed cover
Excerpt: (§1) Table 4 lists the tested plots with various treatment using granular and/or liquid boron formulations alone, or in combination with another micronutrient Cu and/or macronutrients including N, P, K. FIG. 3 and FIGS. 5A-5E represent phytotoxicity effect on weed control by investigating coverage after the desired treatments from the test plots listed in Table 4. Also, FIGS. 9A-9D to FIGS. 25A-25D present actual vegetation conditions of each plot after the desired treatment described in Table 4.

Forbs (Weeds) = test: Weedy turf test plots: forb (weed) cover and weed control after treatment; type: in vivo; settings: for control of invasive weeds, in words: Fall-treated turf plots of Table 4, 10-month study period, rate as in the label; for Forbs (Weeds) 8 months: cover in weedy turf plots of Table 4, 8 months; for Forbs (Weeds) 10 months: cover in weedy turf plots of Table 4, 10 months; for Forbs (Weeds) 12 months: cover in weedy turf plots of Table 4, 12 months; for 8-12 month average weed cover: weedy turf plots of Table 4
Excerpt: Then, multiple plots were installed in weedy turf for liquid boron fertilizer application. The plots listed in Table 4 were used for varying application rates of B1300 where the amount of liquid applied to each plot varied. The sprayer was weighed before and after each application and the application rate determined by calculation knowing the concentration of B1300 liquid applied. The results of foliar liquid applied in controlling invasive species is reported in FIG. 3 and compared to an untreated control. As presented in FIG. 3, […] rates of liquid B1300 (47 pounds B/acre, 62 pounds B/acre, 75 pounds B/acre, and 93 pounds B/acre), which show the effectiveness of each rate in limiting the growth of invasive plant species. The weedy plants controlled included dandelion (Taraxacum officiniale), oxeye daisy (Chrysanthemum leucanthemum), black medic (Medicago lupulina), Canadian thistle (Circium arvense), and white clover (Trifolium repens). The desirable perennial grasses that were unharmed or stimulated included Kentucky bluegrass (Poa pratensis) and smooth brome (Bromus inermis). The effectiveness of relevant commercial products targeting control of invasive plant species are shown in FIG. 5C and include glyphosate, Natria FeHEDTA and 2-4 D.
as §1
[…] At this North American field site snow covered the ground from approximately December through March. The weedy plants controlled included dandelion (Taraxacum officiniale), oxeye daisy (Chrysanthemum leucanthemum), black medic (Medicago lupulina), Canadian thistle (Circium arvense), and white clover (Trifolium repens). The desirable perennial grasses that were unharmed or stimulated included Kentucky bluegrass (Poa pratensis) and smooth brome (Bromus inermis).

Perennial Grass = test: Weedy turf test plots: perennial grass cover and turf stress after treatment; type: in vivo; settings: for Perennial Grass 8 months: cover in weedy turf plots of Table 4, 8 months, B and N rates per treatment; for Perennial Grass 10 months: cover in weedy turf plots of Table 4, 10 months; for Perennial Grass 12 months: cover in weedy turf plots of Table 4, 12 months; for 8-12 month average grass cover: weedy turf plots of Table 4
Excerpt: Then, multiple plots were installed in weedy turf for liquid boron fertilizer application. The plots listed in Table 4 were used for varying application rates of B1300 where the amount of liquid applied to each plot varied. The sprayer was weighed before and after each application and the application rate determined by calculation knowing the concentration of B1300 liquid applied. The results of foliar liquid applied in controlling invasive species is reported in FIG. 3 and compared to an untreated control. As presented in FIG. 3, the plots were monitored 1 month, 8 months and 10 months after four different application rates of liquid B1300 (47 pounds B/acre, 62 pounds B/acre, 75 pounds B/acre, and 93 pounds B/acre), which show the effectiveness of each rate in limiting the growth of invasive plant species. The weedy plants controlled included dandelion (Taraxacum officiniale), oxeye daisy (Chrysanthemum leucanthemum), black medic (Medicago lupulina), Canadian thistle (Circium arvense), and white clover (Trifolium repens). The desirable perennial grasses that were unharmed or stimulated included Kentucky bluegrass (Poa pratensis) and smooth brome (Bromus inermis). The effectiveness of relevant commercial products targeting control of invasive plant species are shown in FIG. 5C and include glyphosate, Natria FeHEDTA and 2-4 D.
as §1
In this example the fertilizer was applied to weedy turf grass in September with approximately 50% invasive plant cover and then monitored again one, eight and ten months after initial application. At this North American field site snow covered the ground from approximately December through March. The weedy plants controlled included dandelion (Taraxacum officiniale), oxeye daisy (Chrysanthemum leucanthemum), black medic (Medicago lupulina), Canadian thistle (Circium arvense), and white clover (Trifolium repens). The desirable perennial grasses that were unharmed or stimulated included Kentucky bluegrass (Poa pratensis) and smooth brome (Bromus inermis).

French marigold = settings: Choi et al. (1996); cited from earlier work
seed geranium = settings: Lee et al. (1996), in combination with nitrogen, phosphorus, and potassium; cited from earlier work
[1] = system: selected grasses and forbs; settings: greenhouse trials, Munshower and others (2006); cited from earlier work
chlorophyllitic plants = settings: as little as; cited from earlier work
prostrate knotweed = test: Foliar spray on prostrate knotweed, compared with Roundup; type: in vivo, Polygonum aviculare
Excerpt: In this example, liquid B1300 product was formulated by dissolving 1300 grams of 20.5% Boron (Solubor®) into 4 gallons of water for a foliar spray to target plants, either with or without ‘drizzle down’ of the liquid into the roots. Also, liquid B1440 product was formulated by dissolving 1440 grams of 20.5% Boron (Solubor®) into 4 gallons of water. Many invasive plants are controlled by B1300 foliar spray as presented in FIGS. 1A-1C or B1440 foliar spray as presented in FIGS. 2A-2C. Annual invasive plant species are easily controlled by phytotoxic nutrient addition since they have to grow from seed every year and have the least reliance on well—developed/extensive root systems and/or taproots that store plant resources. Annual invasive plants also have to grow from near the soil surface every year where it is easiest to add phytotoxic micronutrients and change the soil chemistry to inhibit or control the annual plant's growth. Perennial invasive plants grow every year from the previous years roots and take generally two forms: tap root species and extensive well-developed root systems. In general, it is difficult to control these invasive perennial plants compared to annual plants due to roots with plant resources deep in the soil. […]

humans = settings: 2005 carcinogen assessment guidelines; cited from earlier work

In the case of `O=C(O)COc1ccc(Cl)cc1Cl` [2-4D (S), 2,4-Dichlorophenoxyacetic acid], the “Vegetation Ranking Index” value (weedy turf) is reported as 13, the “control of invasive weeds, in words” value (Forbs (Weeds)) is reported as “short-term treatment effect” and the “Forbs (Weeds) 8 months” value (Forbs (Weeds)) is reported as 5%. The “Forbs (Weeds) 10 months” value (Forbs (Weeds)) was 15%, the “Forbs (Weeds) 12 months” value (Forbs (Weeds)) was 22% and the “8-12 month average weed cover” value (Forbs (Weeds)) was 14%. For the same compound, the “Perennial Grass 8 months” value (Perennial Grass) was 90%, the “Perennial Grass 10 months” value (Perennial Grass) was 85% and the “Perennial Grass 12 months” value (Perennial Grass) was 78%. The “8-12 month average grass cover” value (Perennial Grass) was 84%.

For `[B]` [B, boron], the “concentration inducing micro-nutrient toxicity” value (French marigold) is listed as 500 µM, the “concentration of nutrient solution inducing toxicity symptoms” value (seed geranium) is listed as 500 µM and the “solution concentration at which plants performed adequately” value [1] is listed as “up to 40 mg B/L”.

For `[Cu]` [Cu, copper], the “concentration inducing micro-nutrient toxicity” value (French marigold) is given as 4000 µM and the “concentration of nutrient solution inducing toxicity symptoms” value (seed geranium) is given as 500 µM.

In the case of `[Fe]` [Fe, iron], the “concentration inducing micro-nutrient toxicity” value (French marigold) is listed as 4000 µM and the “concentration of nutrient solution inducing toxicity symptoms” value (seed geranium) is listed as 500 µM.

In the case of `O=C(O)CNCP(=O)(O)O` [Glyphosate (S), glyphosate], the “Vegetation Ranking Index” value (weedy turf) is listed as −133, the “application rate effective at causing photosynthetic disruption” value (chlorophyllitic plants) is listed as 0.75 pounds active ingredient per acre and the “control of invasive weeds, in words” value (Forbs (Weeds)) is listed as “dominated by weeds by mid-summer”. The “effectiveness in treated turf plots” value (Forbs (Weeds); about 30 days after treatment) was 100%, the “Forbs (Weeds) 8 months” value (Forbs (Weeds)) was 10% and the “Forbs (Weeds) 10 months” value (Forbs (Weeds)) was 95%. For the same compound, the “Forbs (Weeds) 12 months” value (Forbs (Weeds)) was 90%, the weed cover (Forbs (Weeds); next year after treatment, pre-treatment ~50% weed cover) was roughly 75% and the “8-12 month average weed cover” value (Forbs (Weeds)) was 65%. For the same compound, the “effectiveness on prostrate knotweed, in words” value (prostrate knotweed; along a gravel trail, FIG. 26D) was “highly effective”, the “effectiveness in rain affected test” value (prostrate knotweed; plots put out 3 hours before a heavy rain (~1.0")) was “highly effective” and the “stress on perennial turf grasses, in words” value (Perennial Grass; Fall-treated turf plots of Table 4, 10-month study period, rate as in the label) was “has no perennial grasses”. The “Perennial Grass 8 months” value (Perennial Grass) was 0%, the “Perennial Grass 10 months” value (Perennial Grass) was 0% and the “Perennial Grass 12 months” value (Perennial Grass) was 0%. For the same compound, the “8-12 month average grass cover” value (Perennial Grass) was 0%.

For `[Mn+2]` [Mn, manganese], the “concentration inducing micro-nutrient toxicity” value (French marigold) is given as 2000 µM and the “concentration of nutrient solution inducing toxicity symptoms” value (seed geranium) is given as 1000 µM.

In the case of `[Mo]` [Mo, molybdenum], the “concentration inducing micro-nutrient toxicity” value (French marigold) is listed as 1000 µM and the “concentration of nutrient solution inducing toxicity symptoms” value (seed geranium) is listed as 250 µM.

For `[Zn]` [Zn, zinc], the “concentration inducing micro-nutrient toxicity” value (French marigold) is listed as 5000 µM and the “concentration of nutrient solution inducing toxicity symptoms” value (seed geranium) is listed as 500 µM.

In the case of `OB(O)O` [boric acid], the “U.S. EPA carcinogenicity classification” value (humans) is given as “not likely to be carcinogenic to humans”.
